We go through 19 compounds from PubChem BioAssay (NCI).

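A five-concentration, 48-hour dose response in 96-well plates underlies each endpoint, interpolated linearly between surrounding concentrations. TGI is the concentration that stops growth completely.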

Holding throughout (experiment): NCI-60 cell line screen, 48 h
The test system of assay [1] is 786-0 renal.
The test system of assay [2] is COLO 205 colon.
Assay [3] has as its system DLD-1 colon.
Assay [4] concerns KM12 colon.
The subject of assay [5] is LXFL 529 NSCLC.
The test system of assay [6] is M14 melanoma.
The test system of assay [7] is MALME-3M melanoma.
Assay [8] has as its system NCI-H23 lung.
The test system of assay [9] is OVCAR-5 ovarian.
Assay [10] concerns SK-OV-3 ovarian.
Assay [11] deals with DMS 114 small cell lung.
Assay [12] deals with XF 498 CNS.
Assay [13] deals with MDA-N.

Consider `N#CC(NNC(=O)c1ccccc1O)c1ccccc1O` (centres undefined), for which the TGI in [1] was over 100 µM; in [2], over 100 µM; in assay [3], over 100 µM; in assay [4], over 100 µM; in [5], over 100 µM; in assay [6], 29.7 µM. Besides, the TGI in assay [7] was 96.1 µM; in [8] it was over 100 µM; in assay [9], over 100 µM; in assay [10], over 100 µM.
Take `O=C(O)OC12CCCCCC1C(=O)C1CCCCC12` (centres undefined): the TGI in [1], in assay [2], in [11], in assay [4], in [5] and in [6] was over 100 µM in each case. The TGI in [7], in assay [8], in assay [10] and in [12] was over 100 µM throughout.
Take `COC(=O)C(Cc1ccc2c(c1)OCO2)(NC(=O)c1ccccc1)P(=O)(OC)OC` (centres undefined): the TGI in assay [2], in assay [3], in assay [11], in assay [4], in assay [5] and in assay [6] was over 100 µM each time. For the same compound, the TGI in assay [8], in assay [9], in assay [10] and in assay [12] was over 100 µM throughout.
Consider `CCCCCCCCCCCCOC(=N)N1CCOCC1`, for which the TGI in assay [1] worked out at 28.4 µM; in assay [2], 3.45 µM; in assay [3], 12.7 µM; in assay [11], 19.7 µM; in [4], 19.3 µM; in [5], 15.1 µM. In addition, the TGI in assay [6] turned out to be 14.1 µM; in assay [7] it was 34.5 µM; in [8], 27.4 µM; in assay [9], 28.5 µM; in [10] it was 34.1 µM; in [12] it was 29.7 µM.
Regarding `CSc1cnc2ccccc2c1Sc1cn(C)c2ccccc2c1=O`, the TGI was over 100 µM in [1]; over 100 µM in assay [2]; over 100 µM in [3]; 67.7 µM in assay [11]; over 100 µM in assay [4]; over 100 µM in [6]. Further, the TGI in assay [7] was over 100 µM; in assay [8] it was 65.7 µM; in [9], over 100 µM; in assay [10], 44.5 µM; in [12] it was 70.8 µM.
On to `CC(=O)OCC1OC(NC(=S)Nn2c(-c3ccccc3)nc3ccccc3c2=O)C(OC(C)=O)C(OC(C)=O)C1OC(C)=O` (centres undefined), for which the TGI in assay [1], in assay [2], in assay [4], in assay [6], in [7] and in assay [13] was over 100 µM throughout. The TGI in assay [8], in [9] and in assay [10] was over 100 µM each time.
Consider `O=C1C/C(=C\c2ccccc2)C(=O)c2ccccc2N1`, for which the TGI in [1] was 34.5 µM; in assay [2], 34.8 µM; in assay [4], 39.5 µM; in [6], 44.1 µM; in [7], 34.2 µM; in [13], 47.8 µM. In addition, the TGI in [8] was 48.1 µM; in [9], 40.9 µM; in [10] it was 68 µM.
In the case of `CCO/C=N\C1=C(C#N)SC2=N/C(=C\c3ccco3)C(=O)N21`, the TGI in [1], in assay [2], in [4], in assay [6], in assay [7] and in assay [13] was over 100 µM in each case. Further, the TGI in [8], in assay [9] and in [10] was over 100 µM in each case.
Take `COC(=O)[C@@H](N1C(=O)c2ccccc2C1=O)C1(C)CC(Cl)=NO1` (some centres undefined): the TGI in [1], in assay [2], in assay [4], in assay [6], in assay [7] and in assay [13] was over 100 µM throughout. Besides, the TGI in [8], in assay [9] and in [10] was over 100 µM in each case.
For `COc1cc(N(CCC#N)CCC#N)ccc1/C(N=Nc1cccc([N+](=O)[O-])c1)=N\NC(=O)c1ccc(C)cc1`, the TGI in [1], in assay [2], in assay [4], in assay [6], in [7] and in [13] was over 100 µM throughout. For the same compound, the TGI in assay [8], in assay [9] and in assay [10] was over 100 µM throughout.
As for `Cc1c(CNc2ccc(Cl)c(Cl)c2Cl)cnc2nc(N)nc(N)c12`, the TGI in assay [1] is over 50 µM; in [2], 33.8 µM; in assay [4], over 100 µM; in assay [6], over 100 µM; in assay [7] it was over 100 µM; in [13], over 32 µM. The TGI in assay [8] is over 49.3 µM; in assay [9], over 50.4 µM; in assay [10], over 52.4 µM.
On to `O=c1oc2cc(O)ccc2c(O)c1C(c1ccc(/C=C/c2ccccc2)cc1)c1c(O)c2ccc(O)cc2oc1=O`, for which the TGI in assay [1], in [2], in assay [4], in assay [6], in assay [7] and in assay [13] was over 100 µM in each case. For the same compound, the TGI in [8], in assay [9] and in assay [10] was over 100 µM each time.
Take `CCOC(=O)n1c(=O)nc2c3c(ncn21)Oc1c(c(-c2ccccc2)nn1-c1ccccc1)C3c1ccc(Cl)cc1` (centres undefined): the TGI was 2.85 µM in assay [1]; 2.59 µM in assay [2]; 2.89 µM in assay [4]; 3.33 µM in assay [6]; 3.24 µM in assay [7]; 3.01 µM in assay [13]. Besides, the TGI stood at 3.17 µM in [8], 3.53 µM in assay [9] and 6.47 µM in assay [10].
Take `CC(C)OP(=O)(OC(C)C)C(=Nc1ccc(N=C(NNc2ccc([N+](=O)[O-])cc2)P(=O)(OC(C)C)OC(C)C)cc1)NNc1ccc([N+](=O)[O-])cc1`: the TGI in [2], in assay [3], in [11], in [4], in assay [5] and in [6] was over 100 µM in each case. The TGI in assay [7], in [8], in assay [9] and in assay [12] was over 100 µM in each case.
As for `CCCCc1c2c([n+]([O-])c3c1CCCC3)CCCC2`, the TGI in assay [1], in assay [2], in [11], in assay [4], in [5] and in [7] was over 100 µM throughout. In addition, the TGI in [8], in [10] and in [12] was over 100 µM throughout.
As to `C/C(=N\NC(N)=O)C(CN1CCOCC1)C(c1ccccc1)c1c(O)c2ccccc2oc1=O` (centres undefined), the TGI in assay [1], in assay [2], in assay [4], in [6], in [7] and in assay [13] was over 100 µM throughout. The TGI in [8], in assay [9] and in assay [10] was over 100 µM in each case.
Consider `CC1CC(=O)C(CC(=O)O)[C@H]1C(C(=O)C(=O)Nc1cc(Cl)ccc1Cl)[N+](=O)[O-]` (some centres undefined), for which the TGI in assay [1], in assay [2], in [3], in assay [11], in assay [4] and in [9] was over 100 µM each time. Further, the TGI in assay [10] and in assay [12] was over 100 µM throughout.
`COc1cccc(O)c1-c1cc(=O)c2c(O)c(OC)c(OC)c(OC)c2o1`: the TGI in assay [1] was over 100 µM; in assay [2], 39.1 µM; in [4], 77.8 µM; in [6], 68.4 µM; in [7], over 100 µM; in assay [13], 49.2 µM. Besides, the TGI was 85.5 µM in [8], over 100 µM in assay [9] and 89.3 µM in assay [10].
As for `CC(C)C1CC(CO)(CNc2nc(N)nc(Cl)c2C=O)C1` (centres undefined), the TGI in [1] was over 100 µM; in assay [2], 28 µM; in [4] it was over 46.7 µM; in assay [6], 3.24 µM; in assay [7], 44.3 µM; in [13] it was 9.31 µM. Besides, the TGI in assay [8] was 4.64 µM; in assay [9], 96.9 µM; in assay [10], 61.7 µM.
